According to patent publication US20090131356A1, “miR-15, miR-26, miR-31, miR-145, miR-147, miR-188, miR-215, miR-216, miR-331, mmu-miR-292-3P REGULATED GENES AND PATHWAYS AS TARGETS FOR THERAPEUTIC INTERVENTION” (ASURAGEN, INC., priority 2006, published 2009):

How the values were obtained:
Assay type in all cases: cell-based, human
[1] = tested on: H460 lung cancer cells; test: Alamar Blue proliferation assay of pair-wise miRNA combinations; conditions: for % proliferation: H460 cells, normalized to 600 pM negative control (NC) miRNA
Excerpt: miRNAs function in multiple pathways controlling multiple cellular processes. Cancer cells frequently show aberrations in several different pathways which determine their oncogenic properties. Therefore, combinations of multiple miRNAs may provide a better therapeutic benefit rather than a single miRNA. The inventors assessed the efficacy of pair-wise miRNA combinations, administering hsa-miR-147 concurrently with hsa-miR-124a, hsa-miR-126, hsa-let7b, hsa-let-7c or hsa-let7g. H460 lung cancer cells were transiently reverse transfected in triplicates with each miRNA at a final concentration of 300 pM, totaling in 600 pM of oligonucleotide. As a negative control, 600 pM of negative control miRNA (pre-miR NC#2, Ambion) was used. To correlate the effect of various combinations with the effect of the sole miRNA, each miRNA at 300 pM was also combined with 300 pM negative control miRNA. Reverse transfection was carried using the following parameters: 7000 cells per 96 well, 0.15 μl lipofectamine2000 (Invitrogen) in 20 μl OptiMEM (Invitrogen), 100 μl total transfection volume. […] Cells were harvested 72 hours after transfection and subjected to Alamar Blue assays (Invitrogen). Alamar Blue values were normalized to the ones obtained from cells treated with 600 pM negative control miRNA. Data are expressed as % proliferation relative to negative control miRNA-treated cells.
As shown in FIG. 4 and Table 9, transfection of 300 pM hsa-miR-147 reduces proliferation of H460 cells by 23%. […] Additive activity of pair-wise combinations (e.g., hsa-miR-147 plus hsa-miR-124a) is defined as an activity that is greater than the sole activity of each miRNA (e.g., activity of hsa-miR-147 plus hsa-miR-124a>hsa-miR-147 plus NC AND activity of hsa-miR-147 plus hsa-miR-124a>hsa-miR-124a plus NC). Synergistic activity of pair-wise combinations is defined as an activity that is greater than the sum of the sole activity of each miRNA (e.g., activity of hsa-miR-147 plus hsa-miR-124a>SUM [activity of hsa-miR-147 plus NC AND activity of hsa-miR-124a plus NC]). […]

[2] = tested on: H226 cells; test: Alamar Blue proliferation assay, H226 (electroporation)
Excerpt: (§1) The inventors assessed the therapeutic effect of hsa-miR-147 for lung cancer by using 12 individual lung cancer cell lines. To measure cellular proliferation of lung cancer cells, the following parental non-small cell lung cancer (NSCLC) cells were used: cells derived from lung adenocarcinoma (A549, H1299, H522, H838, Calu-3, HCC827, HCC2935), cells derived from lung squamous cell carcinoma (H520, H226), cells derived from lung adenosquamous cell carcinoma (H596), cells derived from lung bronchioalveolar carcinoma (H1650), and cells derived from lung large cell carcinoma (H460). In addition to these parental cell lines, highly metastatic NSCLC cells were used that stably express the firefly luciferase gene: A549-luc, H460-luc, HCC827-luc, H1650-luc, H441-luc. Unlike the parental cell lines, these metastatic cells readily migrate to distant sites of the test animal and form metastases upon subcutaneous, orthotopic, or intravenous injection. Synthetic hsa-miR-147 or negative control miRNA was delivered via lipid-based transfection into A549, H1299, H522, H838, Calu-3, HCC827, HCC2935, H520, H596, H1650, H460, A549-luc, H460-luc, HCC827-luc, H1650-luc, H441-luc cells and via electroporation into H226 cells. Lipid-based reverse transfection was carried out in triplicates according to a published protocol and the following parameters: 5000-12000 cells per 96 well, 0.1-0.2 μl lipofectamine-2000 (Invitrogen, Carlsbad, Calif.) in 20 μl OptiMEM (Invitrogen), […] final concentration of miRNA in 100 μl (Ovcharenko et al., 2005). Electroporation of H226 cells was carried out using the BioRad GenePulserXcell™ instrument with the following settings: 5×10^6 cells with 5 μg miRNA in 200 μl OptiMEM, square wave pulse at 250 V for 5 ms. Electroporated H226 cells were seeded at 7000 cells per 96-well in a total volume of 100 μl. All cells except for Calu-3 cells were harvested 72 hours post transfection or electroporation for assessment of cellular proliferation. Calu-3 cells were harvested 10 days post transfection. […]

[3] = tested on: H1650 cells; test: Alamar Blue proliferation assay, H1650
Excerpt: as §1

[4] = tested on: H520 cells; test: Alamar Blue proliferation assay, H520
Excerpt: as §1

[5] = tested on: Calu-3 cells; test: Alamar Blue proliferation assay, Calu-3
Excerpt: as §1

[6] = tested on: A549 cells; test: Alamar Blue proliferation assay, A549
Excerpt: as §1, with “ms.” for “ms. Electroporated H226 cells were seeded at 7000 cells per 96-well in a total volume of 100 μl. All cells except for Calu-3 cells were harvested 72 hours post transfection or electroporation for assessment of cellular proliferation. Calu-3 cells were harvested 10 days post transfection.”
The inventors determined sensitivity and specificity of hsa-miR-147 by administering hsa-miR-147 or negative control miRNA at increasing concentrations, ranging from 0 pM to 3 nM. Delivery of miRNA and cellular proliferation of A549 and H1299 cells was assessed as described above. […]

[7] = etoposide 10 μM, normalized to negative control miRNA (100%)
[8] = etoposide 50 μM, normalized to negative control miRNA (100%)
[9] = 30 nM, normalized to negative control miRNA (100% proliferation)

Row | Compound | % proliferation ([1]; etoposide 10 μM) [%] | % proliferation ([1]; etoposide 50 μM) [%] | % proliferation [2, 7] [%] | % proliferation [2, 8] [%] | % proliferation [3, 7] [%] | % proliferation [3, 8] [%] | % proliferation [4, 7] [%] | % proliferation [4, 8] [%] | % proliferation [5, 7] [%] | % proliferation [5, 8] [%] | % proliferation [6, 7] [%] | % proliferation [6, 8] [%] | reduction of proliferation of H460 cells ([1]; 300 pM single miRNA plus 300 pM negative control miRNA, 72 hours, vs 600 pM negative control miRNA) [%] | % proliferation [2, 9] [%] | % proliferation [3, 9] [%] | % proliferation [4, 9] [%] | % proliferation [5, 9] [%] | % proliferation [6, 9] [%]
1 | COc1cc([C@@H]2c3cc4c(cc3[C@@H](O[C@@H]3O[C@@H]5CO[C@@H](C)O[C@H]5[C@H](O)[C@H]3O)[C@H]3COC(=O)[C@H]23)OCO4)cc(OC)c1O [Etoposide, etoposide] | 20.19 | 14.94 | 28.17 | 9.33 | 90.98 | 60.31 | 66.80 | 48.53 | 20.81 | 13.53 | 49.13 | 42.18 |  |  |  |  |  | 
2 | hsa-miR-147: Synthetic pre-miR-147 (Ambion AM17100; Dharmacon in vivo); mature sequence GUGUGUGGAAAUGCUUCUGC, MIMAT0000251, SEQ ID NO:114 (synthetic pre-miR (Ambion/Dharmacon), chemistry not given here; listed as Homo sapiens) |  |  |  |  |  |  |  |  |  |  |  |  | 23 | 72.82 | 84.61 | 95.64 | 37.62 | 67.78
